Data set [1] addresses T1, CYP 3A4 (Homo sapiens, UniProt P08684).
T1 construct: individual CYPs in a pool of human liver microsomes; from tissue; host or cells: pooled human liver microsomes
Put plainly: Reversible CYP inhibition in human liver microsomes, CYP 3A4. Type of data set: in vitro ADME. How it is done: (§1) Reversible inhibition of cytochrome P450s (CYPs) in human liver microsomes was tested using prototypical, isoform-selective activity assays for individual CYPs in a pool of human liver microsomes (i.e., testosterone for CYP 3A4, phenacetin for CYP 1A2, bufuralol for CYP 2D6, S-mephenytoin for CYP 2C19, and diclofenac for CYP 2C9). The assay provides 8-point IC50 determinations in the range of 0.010 to 50 μM drug concentrations for major isoforms of CYP450.

A short description of data set [2]: Bidirectional permeability in Caco-2 cells. The conditions noted are these: for Papp B→A at 2 h, 2 μM / Papp A→B at 2 h, 2 μM: human, Caco-2, pH 7.4. Type of data set: in vitro ADME, human. How it is done: The suitability of the compound for oral dosing was evaluated via a Caco-2 permeability assay to predict human intestinal permeability and to investigate drug efflux. Afoxolaner racemate was evaluated for P-glycoprotein (PGP) inhibition in a MDCK permeability assay.
Caco-2 Cells (obtained from ATCC) were seeded onto PET membranes of 96-well Insert Plates for 21-28 days for confluent cell monolayer formation. The integrity of the monolayer was verified by performing Lucifer yellow rejection assay. The quality of the monolayer was also verified by measuring the unidirectional (A→B) permeability of fenoterol/nadolol (low permeability marker), propranolol/metoprolol (high permeability marker) and Bi-directional permeability of Digoxin (a P-glycoprotein substrate marker) in duplicate wells.
Standard assay conditions are as follows: each test compound was tested at 2 μM (DMSO≤1%) with two replicates; bi-directional transport was evaluated (A→B and B→A); incubation was for 2 hours with a single time point; the transport buffer contained HBSS with 10 mM HEPES at pH7.40±0.05; and incubation occurred at 37±1° C., 5% CO2 and relatively saturated humidity. The dosing solution was spiked and mixed with transport buffer and Stop Solution (containing an appropriate internal standard (IS)) to provide the T0 sample. At the end of incubation, sample solutions from both donor and receiver wells were immediately mixed with Stop Solution. All samples, including T0 samples, donor samples, and receiver samples, were analyzed using LC/MS/MS. Concentrations of test compound are expressed as peak area ratio of analytes versus IS without a standard curve.
A general note: Caco-2 monolayers are a common model of the intestinal barrier.

Data set [3] addresses T2, CYP 2D6 (Homo sapiens, UniProt P10635).
T2 construct: individual CYPs in a pool of human liver microsomes; from tissue; host or cells: pooled human liver microsomes
Put plainly: Reversible CYP inhibition in human liver microsomes, CYP 2D6. The conditions noted are these: bufuralol, read-out: Cyp microsome IC50, 2D6. The class given is in vitro ADME. How it is done: as §1

Data set [4] in a line: Plasma protein binding (equilibrium dialysis), mouse. Type of data set: in vitro ADME. To be noted: 2 μM. How it is done:
(§2) Frozen plasma (EDTA-K2 as anticoagulant) pooled from multiple individuals of various species was used as a test matrix. The plasma was purchased from commercial vendors or prepared in house from animals. Warfarin was used as a positive control.
(§3) Isoxazoline compounds were spiked into the blank matrix at the final concentration of 2 μM.
(§4) A 150 μL aliquot of matrix sample was added to one side of the chamber in a 96-well equilibrium dialyzer plate (HTD dialysis) and an equal volume of dialysis buffer was added to the other side of the chamber. An aliquot of matrix sample was harvested before the incubation and used as T0 samples for recovery calculation. Triplicate incubations were performed.
(§5) The dialyzer plate was placed in a humidified incubator and rotated slowly for 4 hours at 37° C. After incubation, samples were taken from the matrix side as well as the buffer side. The plasma sample was matched with equal volume of blank buffer; and buffer samples were matched with equal volume of blank plasma. The matrix-matched samples were quenched with a stop solution containing internal standard.
(§6) The samples were analyzed by LC-MS/MS.
(§7) Then, % bound fraction at 4 hours (% bound=1−% unbound) and % recovery in incubates at 4 hours were calculated.
(§8) The stability of compounds in mouse (ms), rat (r), dog (d), cynomolgus monkey (cy), and human (hu) plasma is shown in Table 10 by the percentages of compounds remaining at two hours.
On the technique in general: In equilibrium dialysis only unbound substance equilibrates across the membrane.

Data set [5] can be described thus: Plasma protein binding (equilibrium dialysis), human. To be noted: 2 μM. The class given is in vitro ADME. Here is the method:
as §2, §3, §4, §5, §6, §7, §8

The target of data set [6] is T3, CYP 1A2 (Homo sapiens, UniProt P05177).
T3 construct: individual CYPs in a pool of human liver microsomes; from tissue; host or cells: pooled human liver microsomes
T3 sequence (P05177 1-516): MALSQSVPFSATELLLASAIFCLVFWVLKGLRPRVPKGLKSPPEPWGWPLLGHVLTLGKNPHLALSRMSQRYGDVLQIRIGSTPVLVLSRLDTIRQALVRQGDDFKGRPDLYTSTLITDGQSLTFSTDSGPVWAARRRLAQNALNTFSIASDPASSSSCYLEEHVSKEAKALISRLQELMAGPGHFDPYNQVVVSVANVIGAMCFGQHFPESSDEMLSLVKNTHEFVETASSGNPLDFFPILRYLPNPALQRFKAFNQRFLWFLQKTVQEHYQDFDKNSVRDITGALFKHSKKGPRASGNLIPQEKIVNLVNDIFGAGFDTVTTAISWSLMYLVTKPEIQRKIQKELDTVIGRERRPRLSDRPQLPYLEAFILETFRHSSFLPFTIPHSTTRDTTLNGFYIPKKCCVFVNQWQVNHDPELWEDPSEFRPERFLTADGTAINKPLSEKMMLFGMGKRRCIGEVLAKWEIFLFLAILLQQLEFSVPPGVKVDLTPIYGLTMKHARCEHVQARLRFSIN
The data set can be described thus: Reversible CYP inhibition in human liver microsomes, CYP 1A2. Type of data set: in vitro ADME. How it is done:
as §1

The test system of data set [7] is Anopheles. Put plainly: Anopheles membrane feeding assay, EC90 at day 7. Type of data set: in vivo. To be noted: 168 h. The source says:
Isoxazoline compounds fluralaner or afoxolaner were reconstituted in 50% human serum and 50% red blood cells and administered to adult Anopheles stephensi mosquitos via standard membrane feeding. […] FIG. 2A represents a plot of viable Anopheles stephensi versus fluralaner concentration at each day of assessment. FIG. 2B represents a plot of viable Anopheles stephensi versus afoxolaner concentration at each day of assessment. […] The IC50 values of each compound for Anopheles death were determined by logistic regression using a least squares method to find the best fit and are shown in Table 1. IC50 values were calculated by applying a four-parameter logistic regression model using a least-squares method to find the best fit using the Graphpad Prism 5.0 software package.

Data set [8] in a line: Hepatocyte stability assay, rat. The class given is in vitro ADME. The conditions noted are these: SD, hepatocytes. Here is the method:
Example 7. In Vitro Metabolic Stability of Isoxazoline Compounds in cd-1 Mouse, sd Rat, Beagle Dog, Cynomolgus Monkey and Human Cryopreserved Hepatocytes
Isoxazoline compounds (at 1 μM) were incubated with cryopreserved hepatocytes (0.5×10^6 cells per mL) in duplicates (n=2) at 37° C. using 96-well plate format.
Time points were 0, 15, 30, 60 and 90 minutes in separate plates and medium control samples without cells at 0 and 90 minutes were also incubated. At each time point the reaction was stopped by adding organic solution containing internal standard (IS).
Positive controls 7-ethoxycoumarin and 7-hydroxycoumarin were included in parallel.
The samples were analyzed by LC-MS/MS. Disappearance of the test compound was assessed based on peak area ratios of analyte/IS (no standard curve).
Intrinsic clearance and t½ values were then calculated.

Data set [9] can be described thus: Lipophilicity, ALogD at pH 7.4. Type of data set: physicochemical.
[10] abbreviates: B→A, 2 μM, 2 hours, read-out: Caco2 B-A.
[11] abbreviates: rat (r), 1 μM, read-out: Hepatocyte stability (t½).

Read-outs that look alike come from different tables or passages of the source. Some results are limits rather than exact numbers.

One may read the IC50 as the point on the concentration scale where inhibition reaches its midpoint. What is called EC90 is the point of the concentration-response curve where the effect stands at 90%.

T2 sequence (P10635 whole entry): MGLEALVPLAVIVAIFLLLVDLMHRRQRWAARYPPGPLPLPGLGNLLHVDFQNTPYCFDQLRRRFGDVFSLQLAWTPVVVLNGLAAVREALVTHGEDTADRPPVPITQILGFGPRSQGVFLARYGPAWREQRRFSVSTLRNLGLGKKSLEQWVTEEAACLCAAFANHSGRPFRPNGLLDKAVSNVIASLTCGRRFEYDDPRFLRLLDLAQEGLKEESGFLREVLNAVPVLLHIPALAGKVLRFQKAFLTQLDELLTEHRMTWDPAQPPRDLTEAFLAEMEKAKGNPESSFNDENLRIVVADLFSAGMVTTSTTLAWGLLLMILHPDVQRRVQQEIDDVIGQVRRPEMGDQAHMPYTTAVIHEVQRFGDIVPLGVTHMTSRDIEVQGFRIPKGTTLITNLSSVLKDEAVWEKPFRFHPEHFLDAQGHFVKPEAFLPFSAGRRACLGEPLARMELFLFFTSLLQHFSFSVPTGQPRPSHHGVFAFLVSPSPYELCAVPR
T1 sequence (P08684 whole entry): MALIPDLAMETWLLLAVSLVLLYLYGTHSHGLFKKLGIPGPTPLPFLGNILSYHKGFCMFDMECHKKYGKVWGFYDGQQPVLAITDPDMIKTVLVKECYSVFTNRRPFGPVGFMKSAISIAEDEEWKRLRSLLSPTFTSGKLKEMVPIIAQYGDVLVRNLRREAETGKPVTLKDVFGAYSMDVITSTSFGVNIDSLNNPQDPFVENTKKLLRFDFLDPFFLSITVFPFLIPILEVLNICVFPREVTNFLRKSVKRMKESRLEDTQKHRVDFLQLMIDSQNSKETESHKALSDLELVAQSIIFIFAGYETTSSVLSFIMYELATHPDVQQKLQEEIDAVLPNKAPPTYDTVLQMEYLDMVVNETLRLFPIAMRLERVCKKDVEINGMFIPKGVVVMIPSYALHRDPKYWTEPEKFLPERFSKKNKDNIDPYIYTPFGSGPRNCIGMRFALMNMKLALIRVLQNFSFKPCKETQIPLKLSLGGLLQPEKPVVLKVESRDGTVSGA

Consider `O=C(CNC(=O)c1ccc(C2=NO[C@](c3cc(Cl)cc(C(F)(F)F)c3)(C(F)(F)F)C2)c2ccccc12)NCC(F)(F)F` (racemic) [Afoxolaner, afoxolaner], for which the IC50 in data set [1], in [3] and in data set [6] was greater than 50 µM throughout. In [2] (A→B, 2 μM, 2 hours), the “Caco2 A-B” value is <0.0003/ 10^−6 cm/sec. In data set [2] (setting [10]), the Papp B→A at 2 h, 2 μM was determined as 0.24 ×10⁻⁶ cm/s. In addition, the “Plasma protein % binding” value in [4] (mouse (ms), 4 hours) is listed as 97.8 (ms), %; in data set [5] (human (hu), 4 hours) it was >99.9 (d, hu) %. This molecule showed a concentration for an effect of 90% (EC90) in data set [7] of 0.0081 µM. Besides, the half-life at 1 μM in [8] (setting [11]) was greater than 3.62 h. For the same molecule, the “ALogD (pH 7.4)” value in [9] is 6.1.

On to `O=C(CNC(=O)c1ccc(C2=NO[C@@](c3cc(Cl)cc(Cl)c3)(C(F)(F)F)C2)c2ccccc12)NCC(F)(F)F` [(S)-4-(5-(3,5-dichlorophenyl)-5-(trifluoromethyl)-4,5-dihydroisoxazol-3-yl)-N-(2-oxo-2-((2,2,2-trifluoroethyl)amino)ethyl)-1-naphthamide], for which the IC50 in data set [1] is greater than 50 µM; in data set [3], 17.2 µM; in [6] (human liver microsomes, phenacetin, read-out: Cyp microsome IC50, 1A2) it was greater than 50 µM. Besides, the Papp A→B at 2 h, 2 μM in [2] was less than 0.29 ×10⁻⁶ cm/s. Also, the Papp B→A at 2 h, 2 μM in data set [2] is 0.56 ×10⁻⁶ cm/s. Also, the “Plasma protein % binding” value in data set [4] (mouse, 4 h) is given as >99.9% (ms, r, d, hu); in [5] (human, 4 h), >99.9% (ms, r, d, hu). In addition, the EC90 in data set [7] (day 7, read-out: EC90) was 0.008 µM. This molecule also displayed a half-life at 1 μM in [8] (rat) of 1.28 h. Also, the “ALogD (pH 7.4)” value in [9] worked out at 5.8.

As to `O=C(CNC(=O)c1ccc(C2=NO[C@@](c3cc(Cl)cc(C(F)(F)F)c3)(C(F)(F)F)C2)c2ccccc12)NCC(F)(F)F` [(S)-afoxolaner], the IC50 was greater than 50 µM in data set [1], 19 µM in data set [3] and greater than 50 µM in data set [6]. Also, the Papp A→B at 2 h, 2 μM in data set [2] (A→B, 2 μM, 2 hours, read-out: Caco2 A-B) was less than 0.2 ×10⁻⁶ cm/s. Also, in data set [2] (setting [10]), the Papp B→A at 2 h, 2 μM was found to be 0.7 ×10⁻⁶ cm/s. The “Plasma protein % binding” value in [4] (mouse (ms), 4 hours) is listed as >99.9 (ms, r, hu), %; in [5] (human (hu), 4 hours), >99.9 (ms, r, hu), %. In [7], it took 0.008 µM to reach the 90% level (EC90). For the same molecule, the half-life at 1 μM in data set [8] (setting [11]) worked out at 1 h. In data set [9], the “ALogD (pH 7.4)” value is reported as 6.1.

These data come from patent US20200061026A1, “METHODS AND COMPOSITIONS FOR PREVENTING VECTOR-BORNE DISEASE TRANSMISSION” (The Scripps Research Institute, priority 2016, published 2020).
